In patent US20250368666A1, “INDAZOLE COMPOUNDS” (TYRA BIOSCIENCES, INC., priority 2022, published 2025):

Key:
Assay in all cases: Kinase binding assay (kinase-tagged T7 phage, affinity beads, qPCR), Kd
FGFR4 = target: T1, FGFR4 (Homo sapiens, UniProt P22455); conditions: read-out: FGFR4 (Kd nM)
T1 construct: made in house; host or cells: E. coli (BL21-derived), T7 phage
In short: (§1)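 Kd obtained by Levenberg–Marquardt Hill-equation fit (slope −1) to qPCR-measured kinase retained on ligand-coated streptavidin beads.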

FGFR3 = target: T2, FGFR3 (Homo sapiens, UniProt P22607); conditions: read-out: FGFR3 (Kd nM)
T2 construct: made in house; host or cells: E. coli (BL21-derived), T7 phage
In short: as §1

FGFR1 = target: T3, FGFR1 (Homo sapiens, UniProt P11362); conditions: read-out: FGFR1 (Kd nM)
T3 construct: made in house; host or cells: E. coli (BL21-derived), T7 phage
In short: as §1

FGFR3 (V555M) = target: T4, FGFR3 (V555M) (Homo sapiens, UniProt P22607, V555M); conditions: V555M mutant; read-out: FGFR3 (V555M) (Kd nM)
T4 construct: made in house; host or cells: E. coli (BL21-derived), T7 phage
In short: as §1

FGFR2 = target: T5, FGFR2 (Homo sapiens, UniProt P21802); conditions: read-out: FGFR2 (Kd nM)
T5 construct: made in house; host or cells: E. coli (BL21-derived), T7 phage
In short: as §1

T1 sequence (P22455 22-802): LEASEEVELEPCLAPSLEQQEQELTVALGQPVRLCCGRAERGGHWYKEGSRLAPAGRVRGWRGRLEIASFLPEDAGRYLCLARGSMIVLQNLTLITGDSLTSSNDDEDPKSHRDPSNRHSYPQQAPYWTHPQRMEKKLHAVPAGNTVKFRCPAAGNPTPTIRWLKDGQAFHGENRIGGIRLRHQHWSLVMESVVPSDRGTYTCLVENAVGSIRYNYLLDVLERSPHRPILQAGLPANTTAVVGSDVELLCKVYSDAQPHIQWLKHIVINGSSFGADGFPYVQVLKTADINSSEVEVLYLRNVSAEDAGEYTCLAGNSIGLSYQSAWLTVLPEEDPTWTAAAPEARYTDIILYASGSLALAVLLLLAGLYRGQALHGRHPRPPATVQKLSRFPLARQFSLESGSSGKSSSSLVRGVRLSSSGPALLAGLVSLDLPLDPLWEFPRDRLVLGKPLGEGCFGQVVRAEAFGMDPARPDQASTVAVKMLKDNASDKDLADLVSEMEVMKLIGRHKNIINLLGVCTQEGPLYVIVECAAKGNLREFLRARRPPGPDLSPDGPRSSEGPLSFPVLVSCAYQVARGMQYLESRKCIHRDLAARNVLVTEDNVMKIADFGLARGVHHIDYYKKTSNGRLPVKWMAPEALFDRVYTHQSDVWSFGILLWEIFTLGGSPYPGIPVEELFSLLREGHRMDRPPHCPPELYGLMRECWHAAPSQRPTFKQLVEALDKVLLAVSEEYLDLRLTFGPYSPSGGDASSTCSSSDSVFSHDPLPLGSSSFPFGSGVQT
T3 sequence (P11362 22-822): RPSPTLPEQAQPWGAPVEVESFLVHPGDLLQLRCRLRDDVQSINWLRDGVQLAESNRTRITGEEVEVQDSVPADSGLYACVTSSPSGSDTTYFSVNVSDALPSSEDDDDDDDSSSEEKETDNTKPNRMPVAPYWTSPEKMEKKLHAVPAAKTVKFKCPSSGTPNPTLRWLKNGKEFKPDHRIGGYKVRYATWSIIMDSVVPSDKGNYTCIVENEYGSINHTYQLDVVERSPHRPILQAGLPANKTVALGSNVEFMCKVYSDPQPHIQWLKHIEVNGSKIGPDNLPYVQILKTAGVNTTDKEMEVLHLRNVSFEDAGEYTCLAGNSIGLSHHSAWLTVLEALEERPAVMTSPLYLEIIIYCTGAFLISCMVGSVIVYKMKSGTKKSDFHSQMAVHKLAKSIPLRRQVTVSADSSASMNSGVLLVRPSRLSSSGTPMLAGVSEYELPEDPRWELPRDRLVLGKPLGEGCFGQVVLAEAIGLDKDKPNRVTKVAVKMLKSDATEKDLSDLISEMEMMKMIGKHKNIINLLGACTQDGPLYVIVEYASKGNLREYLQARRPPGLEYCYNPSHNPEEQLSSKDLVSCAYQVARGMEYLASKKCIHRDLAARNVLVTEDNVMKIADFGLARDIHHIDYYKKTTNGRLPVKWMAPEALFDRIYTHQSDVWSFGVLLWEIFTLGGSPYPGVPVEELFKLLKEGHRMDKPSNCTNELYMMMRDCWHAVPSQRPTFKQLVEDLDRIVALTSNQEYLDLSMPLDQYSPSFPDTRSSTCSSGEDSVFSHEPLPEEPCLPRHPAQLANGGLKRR
T2 sequence (P22607 23-806): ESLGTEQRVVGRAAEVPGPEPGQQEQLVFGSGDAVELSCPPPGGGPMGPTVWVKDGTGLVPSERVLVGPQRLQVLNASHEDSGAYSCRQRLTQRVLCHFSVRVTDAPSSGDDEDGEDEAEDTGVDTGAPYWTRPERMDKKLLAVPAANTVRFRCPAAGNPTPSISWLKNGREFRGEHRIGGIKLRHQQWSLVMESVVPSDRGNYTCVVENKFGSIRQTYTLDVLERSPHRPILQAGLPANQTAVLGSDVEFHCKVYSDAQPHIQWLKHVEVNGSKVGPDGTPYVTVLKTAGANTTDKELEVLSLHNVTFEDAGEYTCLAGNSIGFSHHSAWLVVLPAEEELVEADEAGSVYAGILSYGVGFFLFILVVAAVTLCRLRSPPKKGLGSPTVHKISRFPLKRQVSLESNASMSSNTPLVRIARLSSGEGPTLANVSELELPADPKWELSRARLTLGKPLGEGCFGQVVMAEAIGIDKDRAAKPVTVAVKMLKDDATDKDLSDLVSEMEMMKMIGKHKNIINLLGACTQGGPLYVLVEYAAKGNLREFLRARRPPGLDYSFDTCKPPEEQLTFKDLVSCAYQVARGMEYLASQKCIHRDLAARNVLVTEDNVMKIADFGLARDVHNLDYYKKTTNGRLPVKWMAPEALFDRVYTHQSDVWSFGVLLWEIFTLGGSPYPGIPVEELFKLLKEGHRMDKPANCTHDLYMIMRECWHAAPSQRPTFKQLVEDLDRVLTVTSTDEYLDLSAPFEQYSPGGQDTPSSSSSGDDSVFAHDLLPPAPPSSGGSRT
T5 sequence (P21802 22-821): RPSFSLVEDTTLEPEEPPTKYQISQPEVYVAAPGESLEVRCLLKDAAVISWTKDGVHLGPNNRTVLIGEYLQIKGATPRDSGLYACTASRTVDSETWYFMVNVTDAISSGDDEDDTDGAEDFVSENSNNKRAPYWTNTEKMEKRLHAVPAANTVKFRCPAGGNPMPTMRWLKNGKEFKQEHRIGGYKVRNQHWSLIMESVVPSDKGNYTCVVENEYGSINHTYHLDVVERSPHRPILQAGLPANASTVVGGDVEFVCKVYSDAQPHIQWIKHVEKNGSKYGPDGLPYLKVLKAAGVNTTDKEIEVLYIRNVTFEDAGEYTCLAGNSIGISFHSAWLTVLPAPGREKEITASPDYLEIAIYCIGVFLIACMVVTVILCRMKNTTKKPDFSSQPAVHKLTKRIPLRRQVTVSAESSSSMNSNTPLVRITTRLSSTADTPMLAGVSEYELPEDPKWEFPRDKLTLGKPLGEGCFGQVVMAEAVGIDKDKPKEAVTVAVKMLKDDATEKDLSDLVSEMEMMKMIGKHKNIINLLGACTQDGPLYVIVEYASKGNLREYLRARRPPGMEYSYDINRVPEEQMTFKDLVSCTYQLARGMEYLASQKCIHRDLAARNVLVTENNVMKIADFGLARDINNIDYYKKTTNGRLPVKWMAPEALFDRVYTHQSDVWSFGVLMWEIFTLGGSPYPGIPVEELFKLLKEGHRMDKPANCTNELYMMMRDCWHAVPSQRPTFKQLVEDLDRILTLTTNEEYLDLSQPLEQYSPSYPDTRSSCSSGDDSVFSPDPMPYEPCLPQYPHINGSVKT
T4 sequence (P22607 23-806 V555M): as the sequence (P22607 23-806) above, with V533M counted along it

Structure (SMILES)	Kd (FGFR4)	Kd (FGFR3)	Kd (FGFR1)	Kd (FGFR3 (V555M))	Kd (FGFR2)
C[C@@H](Oc1cc2c(-c3cnc(N4CC(C)(CP(C)(C)=O)C4)c(F)c3)n[nH]c2cc1F)c1c(Cl)cncc1Cl [Example 193, (R)-((1-(5-(5-(1-(3,5-dichloro-pyridin-4-yl)ethoxy)-6-fluoro-1H-indazol-3-yl)-3-fluoropyridin-2-yl)-3-methylazetidin-3-yl)methyl)dimethyl-phosphine oxide]	1 to 50 nM	1 to 50 nM	1 to 50 nM	1 to 50 nM	1 to 50 nM
COc1cc2[nH]nc(-c3cnc(N4CC(C)(CS(C)(=O)=O)C4)c(F)c3)c2cc1O[C@H](C)c1c(Cl)cncc1Cl [Example 194, (R)-5-(1-(3,5-dichloropyridin-4-yl)ethoxy)-3-(5-fluoro-6-(3-methyl-3-((methyl-sulfonyl)meth-yl)azetidin-1-yl)pyridin-3-yl)-6-methoxy-1H-indazole]	1 to 50 nM	1 to 50 nM	1 to 50 nM	1 to 50 nM	1 to 50 nM
C[C@@H](Oc1ccc2[nH]nc(-c3cnc(N4CC(C)(CS(C)(=O)=O)C4)nc3)c2c1)c1c(Cl)cncc1Cl [Example 195, (R)-5-(1-(3,5-dichloro-pyridin-4-yl)ethoxy)-3-(2-(3-methyl-3-((methylsulfonyl)-methyl)azetidin-1-yl)pyrimidin-5-yl)-1H-indazole]	1 to 50 nM	1 to 50 nM	1 to 50 nM	1 to 50 nM	1 to 50 nM
C[C@@H](Oc1ccc2[nH]nc(-c3cnc(N4CC(C)(CS(C)(=O)=O)C4)c(F)c3)c2c1F)c1c(Cl)cncc1Cl [Example 196, (R)-5-(1-(3,5-dichloropyridin-4-yl)ethoxy)-4-fluoro-3-(5-fluoro-6-(3-methyl-3-((methyl-sulfonyl)meth-yl)azetidin-1-yl)pyridin-3-yl)-1H-indazole]	300 to 1000 nM	300 to 1000 nM	> 1000 nM	50 to 300 nM	> 1000 nM
CNC1(C)CN(c2ncc(-c3n[nH]c4ccc(O[C@H](C)c5c(Cl)cncc5Cl)c(F)c34)cc2F)C1 [Example 197, (R)-1-(5-(5-(1-(3,5-dichloropyridin-4-yl)ethoxy)-4-fluoro-1H-indazol-3-yl)-3-fluoropyridin-2-yl)-N,3-dimethylazetidin-3-amine]	50 to 300 nM	50 to 300 nM	300 to 1000 nM	1 to 50 nM	> 1000 nM
C[C@H](Oc1ccc2[nH]nc(-c3cnc(N4CC(C)(N(C)C)C4)c(F)c3)c2c1)c1c(Cl)cncc1Cl [Example 201, 1-[5-[5-[(1S)-1-(3,5-dichloro-4-pyridyl)ethoxy]-1H-indazol-3-yl]-3-fluoro-2-pyridyl]-N,N,3-trimethyl-azetidin-3-amine]	300 to 1000 nM	50 to 300 nM	300 to 1000 nM	300 to 1000 nM	300 to 1000 nM
C[C@H](Oc1ccc2[nH]nc(-c3cnc(N4C[C@@H](CS(C)(=O)=O)[C@@H]4C)c(F)c3)c2c1)c1c(Cl)cncc1Cl [Example 202, 5-((S)-1-(3,5-dichloropyridin-4-yl)ethoxy)-3-(5-fluoro-6-((2S,3R)-2-methyl-3-((meth-ylsulfonyl)meth-yl)azetidin-1-yl)pyridin-3-yl)-1H-indazole]	50 to 300 nM	50 to 300 nM	300 to 1000 nM	1 to 50 nM	> 1000 nM
C[C@H](Oc1ccc2[nH]nc(-c3cnc(N4C[C@H](CS(C)(=O)=O)[C@H]4C)c(F)c3)c2c1)c1c(Cl)cncc1Cl [Example 208, 5-((S)-1-(3,5-dichloropyridin-4-yl)ethoxy)-3-(5-fluoro-6-((2R,3S)-2-methyl-3-((meth-ylsulfonyl)meth-yl)azetidin-1-yl)pyridin-3-yl)-1H-indazole]	300 to 1000 nM	50 to 300 nM	> 1000 nM	50 to 300 nM	> 1000 nM
Cc1ncc(Cl)c([C@@H](C)Oc2ccc3[nH]nc(-c4cnc(N5CC(C)(NC(C)C)C5)c(F)c4)c3c2)c1Cl [Example 221, 1-[5-[5-[(1R)-1-(3,5-dichloro-2-methyl-4-pyridyl)ethoxy]-1H-indazol-3-yl]-3-fluoro-2-pyridyl]-N-isopropyl-3-methyl-azetidin-3-amine]	1 to 50 nM	1 to 50 nM	1 to 50 nM	1 to 50 nM	1 to 50 nM
C[C@@H](Oc1ccc2[nH]nc(-c3ccc(N4CC(C)(N5CCP(C)(=O)CC5)C4)nc3)c2c1)c1c(Cl)cncc1Cl [Example 226, (R)-1-(1-(5-(5-(1-(3,5-dichloropyridin-4-yl)ethoxy)-1H-indazol-3-yl)pyridin-2-yl)-3-methylazetidin-3-yl)-4-methyl-1,4-azaphosphinane 4-oxide]	1 to 50 nM	1 to 50 nM	1 to 50 nM	1 to 50 nM	1 to 50 nM
C[C@@H](Oc1ccc2[nH]nc(-c3ccc(N4CC(C)(NCP(C)(C)=O)C4)nc3)c2c1)c1c(Cl)cncc1Cl [Example 230, 1-[5-[5-[(1R)-1-(3,5-dichloro-4-pyridyl)ethoxy]-1H-indazol-3-yl]-2-pyridyl]-N-(di-methylphosphoryl-methyl)-3-methyl-azetidin-3-amine]	1 to 50 nM	1 to 50 nM	1 to 50 nM	1 to 50 nM	1 to 50 nM
C[C@@H](Oc1ccc2[nH]nc(-c3ccc(N4CC(C)(N5C[C@H]6C[C@@H]5CO6)C4)nc3)c2c1)c1c(Cl)cncc1Cl [Example 231, (1R,4R)-5-(1-(5-(5-((R)-1-(3,5-dichloropyridin-4-yl)ethoxy)-1H-indazol-3-yl)pyridin-2-yl)-3-methylazetidin-3-yl)-2-oxa-5-aza-bicyclo[2.2.1]hep-tane]	1 to 50 nM	1 to 50 nM	1 to 50 nM	1 to 50 nM	1 to 50 nM
CNC1(C)CN(c2ccc(-c3n[nH]c4ccc(O[C@H](C)c5c(Cl)cncc5Cl)cc34)cn2)C1 [Example 233, (R)-1-(5-(5-(1-(3,5-dichloropyridin-4-yl)ethoxy)-1H-indazol-3-yl)pyridin-2-yl)-N,3-dimethylazetidin-3-amine]	1 to 50 nM	1 to 50 nM	1 to 50 nM	1 to 50 nM	1 to 50 nM
C=CCNC1(C)CN(c2ncc(-c3n[nH]c4ccc(O[C@H](C)c5c(Cl)cncc5Cl)cc34)cn2)C1 [Example 234, (R)-N-ally1-1-(5-(5-(1-(3,5-dichloropyridin-4-yl)ethoxy)-1H-indazol-3-yl)pyrimidin-2-yl)-3-methylazetidin-3-amine]	1 to 50 nM	1 to 50 nM	1 to 50 nM	1 to 50 nM	1 to 50 nM
C[C@@H](Oc1ccc2[nH]nc(-c3cnc(N4CC(C)(NCC5CC5)C4)nc3)c2c1)c1c(Cl)cncc1Cl [Example 235, (R)-N-(cyclo-propylmethyl)-1-(5-(5-(1-(3,5-dichloropyridin-4-yl)ethoxy)-1H-indazol-3-yl)pyrimidin-2-yl)-3-methylazetidin-3-amine]	1 to 50 nM	1 to 50 nM	1 to 50 nM	1 to 50 nM	1 to 50 nM
CC(C)NC1(C)CN(c2ncc(-c3n[nH]c4ccc(O[C@H](C)c5c(Cl)cncc5Cl)cc34)cn2)C1 [Example 236, (R)-1-(5-(5-(1-(3,5-dichloropyridin-4-yl)ethoxy)-1H-indazol-3-yl)pyrimidin-2-yl)-N-isopropyl-3-methylazetidin-3-amine]	1 to 50 nM	1 to 50 nM	1 to 50 nM	1 to 50 nM	1 to 50 nM
CCNC1(C)CN(c2ccc(-c3n[nH]c4ccc(O[C@H](C)c5c(Cl)cncc5Cl)cc34)cn2)C1 [Example 239, 1-[5-[5-[(1R)-1-(3,5-dichloro-4-pyridyl)ethoxy]-1H-indazol-3-yl]-2-pyridyl]-N-ethyl-3-methyl-azetidin-3-amine]	1 to 50 nM	1 to 50 nM	1 to 50 nM	1 to 50 nM	1 to 50 nM
C[C@@H](Oc1cc2c(-c3cnc(N4CC(C)(CN5CCCC5)C4)c(C#N)c3)n[nH]c2cc1F)c1c(Cl)cncc1Cl [Example 317, (R)-5-(5-(1-(3,5-dichloropyridin-4-yl)ethoxy)-6-fluoro-1H-indazol-3-yl)-2-(3-methyl-3-(pyrrolidin-1-ylmethyl)azetidin-1-yl)nicotinonitrile]	1 to 50 nM	1 to 50 nM	50 to 300 nM	1 to 50 nM	50 to 300 nM
C[C@@H](Oc1ccc2[nH]nc(-c3cnc(N4CC(C)(NCC5CC5)C4)c(C#N)c3)c2c1F)c1c(Cl)cncc1Cl [Example 318, (R)-2-(3-((cyclopropylmethyl)amino)-3-methylazetidin-1-yl)-5-(5-(1-(3,5-dichloropyridin-4-yl)ethoxy)-4-fluoro-1H-indazol-3-yl)nicotinonitrile]	50 to 300 nM	> 1000 nM	> 1000 nM	> 1000 nM	> 1000 nM
CC(C)NC1(C)CN(c2ncc(-c3n[nH]c4ccc(O[C@H](C)c5c(Cl)cncc5Cl)c(F)c34)cc2C#N)C1 [Example 319, (R)-5-(5-(1-(3,5-dichloropyridin-4-yl)ethoxy)-4-fluoro-1H-indazol-3-yl)-2-(3-(isopropylamino)-3-methylazetidin-1-yl)nicotinonitrile]	50 to 300 nM	> 1000 nM	> 1000 nM	300 to 1000 nM	> 1000 nM
C[C@@H](Oc1ccc2[nH]nc(-c3cnc(N4CC(C)(N5CCCC5)C4)c(C#N)c3)c2c1F)c1c(Cl)cncc1Cl [Example 322, (R)-5-(5-(1-(3,5-dichloropyridin-4-yl)ethoxy)-4-fluoro-1H-indazol-3-yl)-2-(3-methyl-3-(pyrrolidin-1-yl)azetidin-1-yl)nicotinonitrile]	50 to 300 nM	> 1000 nM	> 1000 nM	300 to 1000 nM	> 1000 nM
